According to ChEMBL document CHEMBL3217597, “OH radical production stimulated by (RW)4D, a synthetic antimicrobial agent and indolicidin” (Medchemcomm, 2012):
Values after ≈ are worked out from the molar mass of the structure shown. Active and inactive are the calls of the source. The rule behind the calls is not given here. Where a SMILES comes first, the peptide text is derived from it. Side-chain parts run from the residue outwards. [ ]: non-standard residue; d: D form. The star is where a group is joined. Lys(α,ε-(ArgTrp)2) = N=C(N)NCCC[C@H](N)C(=O)N[C@@H](Cc1c[nH]c2ccccc12)C(=O)NCCCC[C@H](NC(=O)[C@H](Cc1c[nH]c2ccccc12)NC(=O)[C@@H](N)CCCNC(=N)N)C(=O)*; βAla = NCCC(=O)O

Columns and labels:
Escherichia coli [1] = assay: Reduction of hydroxyl radical production in deltaicdA knockout Escherichia coli at 5 to 15 ug/ml after 1 hr by flow cytometry analysis; format: functional, organism-based
Escherichia coli [2] = assay: Reduction of hydroxyl radical production in deltamdh knockout Escherichia coli at 5 to 15 ug/ml after 1 hr by flow cytometry analysis; format: functional, organism-based
Escherichia coli [3] = assay: Induction of hydroxyl radical production in Escherichia coli at 5 to 15 ug/mL after 1 hr by measuring increase in hydroxyphenyl fluorescein emission by flow cytometry analysis; format: functional, organism-based
Escherichia coli [4] = assay: Reduction of hydroxyl radical production in […] knockout Escherichia coli at 5 to 15 ug/ml after 1 hr by flow cytometry analysis; format: functional, organism-based
Escherichia coli [5] = assay: Induction of hydroxyl radical production in Escherichia coli at 5 to 15 ug/mL after 1 hr by measuring increase in hydroxyphenyl fluorescein emission by flow cytometry analysis in presence of thiourea; format: functional, organism-based
Escherichia coli [6] = assay: Induction of hydroxyl radical production in Escherichia coli at 5 to 15 ug/mL after 2 hrs by measuring increase in hydroxyphenyl fluorescein emission by flow cytometry analysis; format: functional, organism-based
Escherichia coli [7] = assay: Reduction of hydroxyl radical production in deltaacnB knockout Escherichia coli at 5 to 15 ug/ml after 1 hr by flow cytometry analysis; format: functional, organism-based
Escherichia coli [8] = assay: Induction of hydroxyl radical production in deltaiscS knockout Escherichia coli at 5 to 15 ug/mL after 1 hr by measuring increase in hydroxyphenyl fluorescein emission by flow cytometry analysis; format: functional, organism-based
Escherichia coli [9] = assay: Antibacterial activity against Escherichia coli […]; format: functional, organism-based
Escherichia coli [10] = assay: Antibacterial activity against deltaacnB knockout Escherichia coli; format: functional, organism-based
Escherichia coli [11] = assay: Ratio of IC50 for deltaiscS knockout Escherichia coli to IC50 for Escherichia coli […]; format: functional
Escherichia coli [12] = assay: Reduction of hydroxyl radical production in […] knockout Escherichia coli at 9 to 45 ug/mL after 1 hr by flow cytometry analysis; format: functional, organism-based
Escherichia coli [13] = assay: Ratio of IC50 for deltaacnB knockout Escherichia coli to IC50 for Escherichia coli […]; format: functional
Escherichia coli [14] = assay: Antibacterial activity against deltamdh knockout Escherichia coli; format: functional, organism-based
Escherichia coli [15] = assay: Induction of hydroxyl radical production in Escherichia coli at 9 to 45 ug/mL after 1 hr by measuring increase in hydroxyphenyl fluorescein emission by flow cytometry analysis in presence of thiourea; format: functional, organism-based
Escherichia coli [16] = assay: Antibacterial activity against […] knockout Escherichia coli; format: functional, organism-based
Escherichia coli [17] = assay: Antibacterial activity against deltaicdA knockout Escherichia coli; format: functional, organism-based
Escherichia coli [18] = assay: Reduction of hydroxyl radical production in deltamdh knockout Escherichia coli at 9 to 45 ug/mL after 1 hr by flow cytometry analysis; format: functional, organism-based
Escherichia coli [19] = assay: Ratio of IC50 for deltaicdA knockout Escherichia coli to IC50 for Escherichia coli […]; format: functional
Escherichia coli [20] = assay: Induction of hydroxyl radical production in deltaiscS knockout Escherichia coli at 9 to 45 ug/mL after 1 hr by measuring increase in hydroxyphenyl fluorescein emission by flow cytometry analysis; format: functional, organism-based
Escherichia coli [21] = assay: Reduction of hydroxyl radical production in deltaacnB knockout Escherichia coli at 9 ug/ml after 1 hr by flow cytometry analysis; format: functional, organism-based
Escherichia coli [22] = assay: Induction of hydroxyl radical production in Escherichia coli at 9 to 45 ug/mL after 2 hrs by measuring increase in hydroxyphenyl fluorescein emission by flow cytometry analysis; format: functional, organism-based
Escherichia coli [23] = assay: Induction of hydroxyl radical production in Escherichia coli at 9 to 45 ug/mL after 1 hr by measuring increase in hydroxyphenyl fluorescein emission by flow cytometry analysis; format: functional, organism-based
Escherichia coli [24] = assay: Antibacterial activity against deltaiscS knockout Escherichia coli; format: functional, organism-based
Escherichia coli [25] = assay: Reduction of hydroxyl radical production in deltaicdA knockout Escherichia coli at 9 to 45 ug/mL after 1 hr by flow cytometry analysis; format: functional, organism-based
Escherichia coli [26] = assay: Induction of hydroxyl radical production in Escherichia coli at 5 to 25 ug/mL after 1 hr by measuring increase in hydroxyphenyl fluorescein emission by flow cytometry analysis; format: functional, organism-based
Escherichia coli [27] = assay: Reduction of hydroxyl radical production in […] knockout Escherichia coli at 5 to 25 ug/ml after 1 hr by flow cytometry analysis; format: functional, organism-based
Escherichia coli [28] = assay: Induction of hydroxyl radical production in Escherichia coli at 5 to 25 ug/mL after 1 hr by measuring increase in hydroxyphenyl fluorescein emission by flow cytometry analysis in presence of thiourea; format: functional, organism-based
Escherichia coli [29] = assay: Reduction of hydroxyl radical production in deltaacnB knockout Escherichia coli at 5 to 25 ug/ml after 1 hr by flow cytometry analysis; format: functional, organism-based
Escherichia coli [30] = assay: Induction of hydroxyl radical production in Escherichia coli at 5 to 25 ug/mL after 2 hrs by measuring increase in hydroxyphenyl fluorescein emission by flow cytometry analysis; format: functional, organism-based
Escherichia coli [31] = assay: Reduction of hydroxyl radical production in deltamdh knockout Escherichia coli at 5 to 25 ug/ml after 1 hr by flow cytometry analysis; format: functional, organism-based
Escherichia coli [32] = assay: Induction of hydroxyl radical production in deltaiscS knockout Escherichia coli at 5 to 25 ug/mL after 1 hr by measuring increase in hydroxyphenyl fluorescein emission by flow cytometry analysis; format: functional, organism-based
Escherichia coli [33] = assay: Reduction of hydroxyl radical production in deltaicdA knockout Escherichia coli at 5 to 25 ug/ml after 1 hr by flow cytometry analysis; format: functional, organism-based
Escherichia coli [34] = assay: Reduction of hydroxyl radical production in […] knockout Escherichia coli at 25 to 250 ng/ml after 1 hr by flow cytometry analysis; format: functional, organism-based
Escherichia coli [35] = assay: Reduction of hydroxyl radical production in deltaacnB knockout Escherichia coli at 25 to 250 ng/ml after 1 hr by flow cytometry analysis; format: functional, organism-based
Escherichia coli [36] = assay: Reduction of hydroxyl radical production in deltaicdA knockout Escherichia coli at 25 to 250 ng/ml after 1 hr by flow cytometry analysis; format: functional, organism-based
Escherichia coli [37] = assay: Induction of hydroxyl radical production in Escherichia coli at 25 to 250 ng/mL after 2 hrs by measuring increase in hydroxyphenyl fluorescein emission by flow cytometry analysis; format: functional, organism-based
Escherichia coli [38] = assay: Reduction of hydroxyl radical production in deltamdh knockout Escherichia coli at 25 to 250 ng/ml after 1 hr by flow cytometry analysis; format: functional, organism-based
Escherichia coli [39] = assay: Induction of hydroxyl radical production in Escherichia coli at 25 to 250 ng/mL after 1 hr by measuring increase in hydroxyphenyl fluorescein emission by flow cytometry analysis in presence of thiourea; format: functional, organism-based
Escherichia coli [40] = assay: Induction of hydroxyl radical production in deltaiscS knockout Escherichia coli at 25 to 250 ng/mL after 1 hr by measuring increase in hydroxyphenyl fluorescein emission by flow cytometry analysis; format: functional, organism-based
Escherichia coli [41] = assay: Induction of hydroxyl radical production in Escherichia coli at 25 to 250 ng/mL after 1 hr by measuring increase in hydroxyphenyl fluorescein emission by flow cytometry analysis; format: functional, organism-based

`CC1(C)S[C@@H]2[C@H](NC(=O)[C@H](N)c3ccccc3)C(=O)N2[C@H]1C(=O)O` was tested, and the Activity (Escherichia coli [1]) was “inactive”, the Activity (Escherichia coli [2]) was “inactive” and the Activity (Escherichia coli [3]) was “Active”. For the same compound, the Activity (Escherichia coli [4]) was “inactive”, the Activity (Escherichia coli [5]) was “inactive” and the Activity (Escherichia coli [6]) was “Active”. The Activity (Escherichia coli [7]) was “Active” and the Activity (Escherichia coli [8]) was “inactive”.

With `N=C(N)NCCC[C@H](N)C(=O)N[C@@H](Cc1c[nH]c2ccccc12)C(=O)NCCCC[C@H](NC(=O)[C@H](Cc1c[nH]c2ccccc12)NC(=O)[C@@H](N)CCCNC(=N)N)C(=O)NCCCC[C@H](NC(=O)[C@H](CCCCNC(=O)[C@H](Cc1c[nH]c2ccccc12)NC(=O)[C@@H](N)CCCNC(=N)N)NC(=O)[C@H](Cc1c[nH]c2ccccc12)NC(=O)[C@@H](N)CCCNC(=N)N)C(=O)NCCC(N)=O` (H-RWK([Trp-Arg])K(Lys(α,ε-(ArgTrp)2))[βAla]-NH2) the IC50 (Escherichia coli [9]) was 6.5 mg/L (≈ 3.53 µM), the IC50 (Escherichia coli [10]) was 9.7 mg/L (≈ 5.27 µM) and the “Ratio IC50” value (Escherichia coli [11]) was 1.5. For the same compound, the Activity (Escherichia coli [12]) was “inactive”, the “Ratio IC50” value (Escherichia coli [13]) was 1.5 and the IC50 (Escherichia coli [14]) was 7.8 mg/L (≈ 4.23 µM). For the same compound, the Activity (Escherichia coli [15]) was “inactive”, the IC50 (Escherichia coli [16]) was 8.3 mg/L (≈ 4.51 µM) and the IC50 (Escherichia coli [17]) was 9.4 mg/L (≈ 5.1 µM). For the same compound, the Activity (Escherichia coli [18]) was “inactive”, the “Ratio IC50” value (Escherichia coli [19]) was 1.5 and the Activity (Escherichia coli [20]) was “inactive”. For the same compound, the Activity (Escherichia coli [21]) was “Active”, the Activity (Escherichia coli [22]) was “Active” and the Activity (Escherichia coli [23]) was “Active”. For the same compound, the IC50 (Escherichia coli [24]) was 9.9 mg/L (≈ 5.37 µM) and the Activity (Escherichia coli [25]) was “inactive”.

`NC[C@H]1O[C@H](O[C@H]2[C@H](O)[C@@H](O[C@H]3O[C@H](CO)[C@@H](O)[C@H](N)[C@H]3O)[C@H](N)C[C@@H]2N)[C@H](O)[C@@H](O)[C@@H]1O` was tested, and the Activity (Escherichia coli [26]) was “Active”, the Activity (Escherichia coli [27]) was “inactive” and the Activity (Escherichia coli [28]) was “inactive”. For the same compound, the Activity (Escherichia coli [29]) was “Active”, the Activity (Escherichia coli [30]) was “Active” and the Activity (Escherichia coli [31]) was “inactive”. The Activity (Escherichia coli [32]) was “inactive” and the Activity (Escherichia coli [33]) was “inactive”.

`CCn1cc(C(=O)O)c(=O)c2cc(F)c(N3CCNCC3)cc21` was tested, and the Activity (Escherichia coli [34]) was “inactive”, the Activity (Escherichia coli [35]) was “Active” and the Activity (Escherichia coli [36]) was “inactive”. The Activity (Escherichia coli [37]) was “Active”, the Activity (Escherichia coli [38]) was “inactive” and the Activity (Escherichia coli [39]) was “inactive”. For the same compound, the Activity (Escherichia coli [40]) was “inactive” and the Activity (Escherichia coli [41]) was “Active”.
